Assay results: PMC6271783 (Molecules, 2014)
“Also recorded” adds a separate entry of the source.

What was measured:
[1] = molecular target: T1, rat α3β2 nAChRs (Rattus norvegicus, UniProt P04757+P12390); assay: biochemical
T1 construct: expressed in transfected cells; host or cells: Xenopus laevis oocytes injected with cRNA

[2] = type: physicochemical; details: pH 7
[3] = molecular target: T1, rat α3β2 nAChRs; type: biochemical
[4] = tested on: AChBPs from different species; details: cited from earlier work
[5] = tested on: α3β2 nAChRs; details: cited from earlier work

T1 sequence (P04757 26-499 limits assumed): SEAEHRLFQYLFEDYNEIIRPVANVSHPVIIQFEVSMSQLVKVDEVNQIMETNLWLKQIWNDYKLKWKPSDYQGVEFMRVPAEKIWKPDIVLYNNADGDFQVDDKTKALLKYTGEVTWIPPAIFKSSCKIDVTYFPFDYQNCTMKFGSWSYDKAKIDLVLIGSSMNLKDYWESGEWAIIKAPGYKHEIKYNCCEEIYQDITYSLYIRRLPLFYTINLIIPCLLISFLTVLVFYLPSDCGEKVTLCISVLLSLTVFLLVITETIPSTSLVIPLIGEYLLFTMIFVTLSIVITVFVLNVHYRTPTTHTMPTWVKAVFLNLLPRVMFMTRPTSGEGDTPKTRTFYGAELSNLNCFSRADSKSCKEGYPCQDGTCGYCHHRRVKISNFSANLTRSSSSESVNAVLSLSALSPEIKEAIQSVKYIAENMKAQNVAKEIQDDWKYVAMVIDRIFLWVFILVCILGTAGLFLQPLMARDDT
T1 sequence (P12390 25-500 limits assumed): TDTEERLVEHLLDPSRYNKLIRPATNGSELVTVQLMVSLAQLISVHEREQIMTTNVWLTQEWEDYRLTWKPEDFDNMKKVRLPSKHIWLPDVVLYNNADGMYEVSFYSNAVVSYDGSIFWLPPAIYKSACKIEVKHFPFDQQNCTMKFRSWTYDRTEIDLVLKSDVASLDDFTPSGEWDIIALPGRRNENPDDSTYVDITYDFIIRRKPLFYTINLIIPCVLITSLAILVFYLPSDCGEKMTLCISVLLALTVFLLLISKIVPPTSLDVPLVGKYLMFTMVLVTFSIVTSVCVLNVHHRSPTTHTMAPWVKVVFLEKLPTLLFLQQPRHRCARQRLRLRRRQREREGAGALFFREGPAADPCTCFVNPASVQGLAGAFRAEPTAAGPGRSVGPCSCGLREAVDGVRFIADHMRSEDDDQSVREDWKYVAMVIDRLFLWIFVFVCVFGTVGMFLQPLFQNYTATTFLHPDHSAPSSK

CC[C@H](C)[C@@H]1NC(=O)[C@@H]2CSSC[C@H](NC(=O)CN)C(=O)N[C@@H](CSSC[C@@H](C(N)=O)NC(=O)[C@H](CC(C)C)NC(=O)[C@H](CC(=O)O)NC(=O)[C@@H]3CCCN3C(=O)[C@H](CC(N)=O)NC(=O)[C@H](CC(N)=O)NC(=O)[C@H](C)NC1=O)C(=O)N[C@@H](CO)C(=O)N[C@@H](CCCNC(=N)N)C(=O)N1CCC[C@H]1C(=O)N1CCC[C@H]1C(=O)N2 [globular TxIA, α-conotoxin TxIA]
IC50 [1]: 0.0054 µM | activity on α3β2 nAChRs [1]: most potent isoform; also recorded: strongly inhibited; also recorded: most active form | fold more potent than ribbon isomer [1]: ~ 80 -fold | inhibition of ACh-evoked response [1]: almost complete inhibition | reversibility of inhibition [1]: reversibly inhibited | CD minimum [2]: around 208 nm | CD minimum, second of double minimum [2]: ~222 nm | secondary structure by CD [2]: contained some α-helical structure | relative potency among venom components [3]: most potent component; also recorded: highest potency | affinity to AChBPs [4]: high affinity | selectivity [5]: selectively targeted the α3β2 nAChRs

CC[C@H](C)[C@@H]1NC(=O)[C@@H]2CSSC[C@H](NC(=O)[C@@H](NC(=O)CN)CSSC[C@@H](C(N)=O)NC(=O)[C@H](CC(C)C)NC(=O)[C@H](CC(=O)O)NC(=O)[C@@H]3CCCN3C(=O)[C@H](CC(N)=O)NC(=O)[C@H](CC(N)=O)NC(=O)[C@H](C)NC1=O)C(=O)N[C@@H](CO)C(=O)N[C@@H](CCCNC(=N)N)C(=O)N1CCC[C@H]1C(=O)N1CCC[C@H]1C(=O)N2 [ribbon TxIA]
IC50 [1]: 0.43 µM | activity on α3β2 nAChRs [1]: weaker potency | fold less potent than globular isomer [1]: ~ 80 times | inhibition at 0.5 µM ([1]; read-out: inhibition of ACh evoked current amplitude): ~65% | secondary structure by CD [2]: between them
